Measurements reported in PubChem BioAssay (NCI).
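Each compound was tested at five concentrations against cells in 96-well plates for 48 hours. GI50: concentration for 50% inhibition of growth. Definition used: TGI = concentration required for complete inhibition of growth.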

Key:
Assay in all cases: NCI anticancer screen, dose series, 48 h
[1] = tested on: RXF 393 renal
[2] = tested on: CCRF-CEM leukemia
[3] = tested on: SR leukemia
[4] = tested on: K-562 leukemia
[5] = tested on: UACC-257 melanoma
[6] = tested on: SW-620 colon
[7] = tested on: BT-549 breast
[8] = tested on: MDA-MB-435
[9] = tested on: SF-295 CNS
[10] = tested on: NCI-H460 lung
[11] = tested on: OVCAR-3 ovarian
[12] = tested on: DU-145 prostate
[13] = tested on: 786-0 renal
[14] = tested on: OVCAR-4 ovarian
[15] = tested on: MALME-3M melanoma
[16] = tested on: HCT-116 colon
[17] = tested on: KM12 colon
[18] = tested on: MDA-MB-468 breast
[19] = tested on: EKVX NSCLC
[20] = tested on: NCI-H522 lung
[21] = tested on: COLO 205 colon
[22] = tested on: SK-MEL-5 melanoma
[23] = tested on: U251 CNS
[24] = tested on: SF-539 CNS
[25] = tested on: TK-10 renal
[26] = tested on: MCF7 breast
[27] = tested on: HT29 colon
[28] = tested on: ACHN renal
[29] = tested on: NCI-H23 lung
[30] = tested on: SK-MEL-28 melanoma
[31] = tested on: IGROV1 ovarian
[32] = tested on: LOX IMVI melanoma
[33] = tested on: SK-OV-3 ovarian
[34] = tested on: UACC-62 melanoma
[35] = tested on: OVCAR-5 ovarian
[36] = tested on: HOP-92 NSCLC
[37] = tested on: RPMI-8226 leukemia
[38] = tested on: HS 578T breast
[39] = tested on: HCC-2998 colon
[40] = tested on: SNB-19 CNS
[41] = tested on: HCT-15 colon
[42] = tested on: T-47D breast
[43] = tested on: PC-3 prostate
[44] = tested on: M14 melanoma
[45] = tested on: MOLT-4 leukemia
[46] = tested on: CAKI-1 renal
[47] = tested on: HL-60(TB) leukemia
[48] = tested on: NCI/ADR-RES ovarian
[49] = tested on: NCI-H226 lung
[50] = tested on: HOP-62 NSCLC
[51] = tested on: SF-268 CNS
[52] = tested on: OVCAR-8 ovarian
[53] = tested on: SN12C renal
[54] = tested on: A498 renal
[55] = tested on: A549 NSCLC

In the case of Clc1ccc(-c2nc3c4c(-c5ccccc5)c(-c5ccccc5)n(Cc5ccccc5)c4ncn3n2)cc1, the GI50 [1] is reported as 14.2 µM, the TGI [1] is reported as 39.9 µM and the GI50 [2] is reported as 9.15 µM. It also gave a TGI [2] of 51 µM, a GI50 [3] of 13 µM and a TGI [3] of 36.5 µM. The GI50 [4] was 4.84 µM, the TGI [4] was over 100 µM and the GI50 [5] was 4.17 µM. For the same compound, the TGI [5] was 34.2 µM, the GI50 [6] was 12.5 µM and the TGI [6] was over 100 µM. The GI50 [7] was 4.35 µM, the TGI [7] was 22.5 µM and the GI50 [8] was 4.92 µM. For the same compound, the TGI [8] was 71.3 µM, the GI50 [9] was 11.5 µM and the TGI [9] was 25.7 µM. It also gave a GI50 [10] of 8.24 µM, a TGI [10] of 35.4 µM and a GI50 [11] of 4.76 µM. It also gave a TGI [11] of over 100 µM, a GI50 [12] of 19.1 µM and a TGI [12] of over 100 µM. The GI50 [13] was 12.6 µM, the TGI [13] was 93.3 µM and the GI50 [14] was 10.3 µM. The TGI [14] was over 100 µM, the GI50 [15] was 2.75 µM and the TGI [15] was 9.5 µM. For the same compound, the GI50 [16] was 3.53 µM, the TGI [16] was 35.2 µM and the GI50 [17] was 5.17 µM. It also gave a TGI [17] of 36.5 µM, a GI50 [18] of 2.84 µM and a TGI [18] of 10.3 µM. It also gave a GI50 [19] of 4.6 µM, a TGI [19] of 48.7 µM and a GI50 [20] of 5.95 µM. It also gave a TGI [20] of 43.7 µM, a GI50 [21] of 4.66 µM and a TGI [21] of 16.8 µM. For the same compound, the GI50 [22] was 3.26 µM, the TGI [22] was 12.9 µM and the GI50 [23] was 4.58 µM. The TGI [23] was 33.5 µM, the GI50 [24] was 15.8 µM and the TGI [24] was 33.5 µM. The GI50 [25] was 19 µM, the TGI [25] was over 100 µM and the GI50 [26] was 8.31 µM. The TGI [26] was 61.8 µM, the GI50 [27] was 6.18 µM and the TGI [27] was over 100 µM. For the same compound, the GI50 [28] was 20.8 µM, the TGI [28] was 79.7 µM and the GI50 [29] was 6.88 µM. It also gave a TGI [29] of 44.4 µM, a GI50 [30] of 5.33 µM and a TGI [30] of 47.1 µM. For the same compound, the GI50 [31] was 8.02 µM, the TGI [31] was 85.8 µM and the GI50 [32] was 10.9 µM. It also gave a TGI [32] of 25.2 µM, a GI50 [33] of 12.8 µM and a TGI [33] of 46.7 µM. The GI50 [34] was 3.59 µM, the TGI [34] was 15.2 µM and the GI50 [35] was 21.3 µM. For the same compound, the TGI [35] was 90.3 µM, the GI50 [36] was 1.9 µM and the TGI [36] was 9.53 µM. It also gave a GI50 [37] of 2.46 µM, a TGI [37] of 8.69 µM and a GI50 [38] of 9.38 µM. The TGI [38] was 38.2 µM, the GI50 [39] was 6.37 µM and the TGI [39] was 39.7 µM. It also gave a GI50 [40] of 4.8 µM, a TGI [40] of over 100 µM and a GI50 [41] of 20.5 µM. The TGI [41] was over 100 µM, the GI50 [42] was 3.5 µM and the TGI [42] was 62.5 µM. The GI50 [43] was 3.51 µM, the TGI [43] was 97.3 µM and the GI50 [44] was 12 µM. It also gave a TGI [44] of 77.7 µM, a GI50 [45] of 11.7 µM and a TGI [45] of 58.2 µM. It also gave a GI50 [46] of 21.4 µM, a TGI [46] of 89.2 µM and a GI50 [47] of 3.08 µM. The TGI [47] was 15.5 µM, the GI50 [48] was 24.2 µM and the TGI [48] was 97 µM. The GI50 [49] was 16.3 µM, the TGI [49] was 56.9 µM and the GI50 [50] was 16.1 µM. The TGI [50] was 38.4 µM, the GI50 [51] was 12.2 µM and the TGI [51] was over 100 µM. For the same compound, the GI50 [52] was 12.5 µM, the TGI [52] was over 100 µM and the GI50 [53] was 7.73 µM. It also gave a TGI [53] of 46 µM, a GI50 [54] of 23 µM and a TGI [54] of 63 µM. For the same compound, the GI50 [55] was 20.6 µM and the TGI [55] was over 100 µM.
